This is an account of results in US11001590B2, “Pyrazolopyrimidine derivatives” (BAYER ANIMAL HEALTH GMBH, priority 2016, dated 2021).

For data set [1], the system named is Dirofilaria immitis third-stage larvae. The data set is described as follows: In vitro assay 4: Dirofilaria immitis (DIROIM L4), motility of larvae. The note with it: 72 h.
The target in a further data set is C. elegans Slo-1a (Caenorhabditis elegans, UniProt Q95V25). The data set is described as follows: In vitro assay 1: C. elegans Slo-1a, action at a recombinant C. elegans CHO cell line (membrane potential measurement).
Sequence of C. elegans Slo-1a (Q95V25 whole entry): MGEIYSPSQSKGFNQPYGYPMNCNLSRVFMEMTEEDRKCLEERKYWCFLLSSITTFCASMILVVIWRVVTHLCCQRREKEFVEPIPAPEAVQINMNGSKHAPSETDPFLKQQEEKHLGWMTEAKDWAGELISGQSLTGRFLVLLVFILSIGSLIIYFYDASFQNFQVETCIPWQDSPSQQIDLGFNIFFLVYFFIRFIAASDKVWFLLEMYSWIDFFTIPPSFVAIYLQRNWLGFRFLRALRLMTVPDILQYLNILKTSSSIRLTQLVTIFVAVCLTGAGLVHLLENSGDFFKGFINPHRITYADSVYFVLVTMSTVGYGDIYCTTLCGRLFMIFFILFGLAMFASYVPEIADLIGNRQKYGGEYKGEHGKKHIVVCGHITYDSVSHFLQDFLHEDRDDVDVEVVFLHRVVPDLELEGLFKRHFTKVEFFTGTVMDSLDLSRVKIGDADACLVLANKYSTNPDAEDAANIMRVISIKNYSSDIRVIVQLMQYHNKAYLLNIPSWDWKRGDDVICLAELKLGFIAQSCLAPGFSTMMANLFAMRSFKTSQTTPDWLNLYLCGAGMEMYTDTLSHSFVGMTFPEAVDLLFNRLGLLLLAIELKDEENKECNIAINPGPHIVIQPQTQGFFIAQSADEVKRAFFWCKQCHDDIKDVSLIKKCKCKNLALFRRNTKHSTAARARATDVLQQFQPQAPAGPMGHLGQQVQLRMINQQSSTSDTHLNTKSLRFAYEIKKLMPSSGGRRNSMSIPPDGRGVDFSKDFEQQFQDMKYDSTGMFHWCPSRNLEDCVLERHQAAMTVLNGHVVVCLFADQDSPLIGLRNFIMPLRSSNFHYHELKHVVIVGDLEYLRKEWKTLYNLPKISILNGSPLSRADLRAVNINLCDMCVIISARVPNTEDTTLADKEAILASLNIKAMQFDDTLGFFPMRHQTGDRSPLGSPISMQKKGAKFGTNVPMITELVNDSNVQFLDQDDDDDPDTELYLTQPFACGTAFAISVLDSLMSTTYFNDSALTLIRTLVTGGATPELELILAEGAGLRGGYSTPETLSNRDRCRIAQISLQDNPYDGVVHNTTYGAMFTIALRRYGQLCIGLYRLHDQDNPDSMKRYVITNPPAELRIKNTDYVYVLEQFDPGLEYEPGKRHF
Data set [2] deals with Dirofilaria immitis microfilariae. Description: In vitro assay 3: Dirofilaria immitis microfilariae (DIROIM L1), motility. The note with it: 72 h, reduction of motility vs negative control, 72 h incubation.
Data set [3] is described as follows: log P by HPLC on reversed phase columns (Method L0; [a] acidic, [b] neutral range).
Description: Calibration was done with straight-chain alkan-2-ones (with 3 to 16 carbon atoms) with known log P values (measurement of log P values using retention times with linear interpolation between successive alkanones). Lambda-max-values were determined using UV-spectra from 200 nm to 400 nm and the peak values of the chromatographic signals.

For the molecule `Cc1nn2c(C(C)C)c(C(=O)N[C@H]3CCc4ccccc43)cnc2c1-c1cccc(C(F)(F)F)c1` [Example 4], the half-maximal effective concentration (EC50) (usually the concentration giving half of the maximal effect) in data set [1] was < 1 µg/mL; on C. elegans Slo-1a it was 0.0316 µM; in data set [2], < 1 µg/mL. Moreover, the chromatographic logP (in general, lipophilicity estimated from chromatographic retention) in data set [3] amounted to 5.3.
`Cc1nn2c(C(C)C)c(C(=O)N[C@H]3CCc4ccccc43)cnc2c1-c1cccc(CN2CCN(C)CC2)c1` [Example 399]: the figures for the half-maximal effective concentration (EC50) (at C. elegans Slo-1a; in data set [2]) were 7.94 µM and < 10 µg/mL, respectively. The molecule further came in with a chromatographic logP in data set [3] of 1.98.
The corresponding values for `Cc1nn2c(C(C)C)c(C(=O)N[C@H]3CCc4ccccc43)cnc2c1-c1cccc(CS(C)(=O)=O)c1` [Example 400] are 0.126 µM, < 10 µg/mL and 3.39.
With `CC(C)c1c(C(=O)N[C@H]2CCc3ccccc32)cnc2c(-c3cccc(N(C)C)c3)c(C3CC3)nn12` [Example 407], the figures for the 50% effective concentration (EC50) (on C. elegans Slo-1a; in data set [2]) were 0.126 µM and < 10 µg/mL, respectively. Moreover, the chromatographic logP in data set [3] is 4.81.
As for `COc1cccc(-c2c(C3CC3)nn3c(C(C)C)c(C(=O)N[C@H]4CCc5ccccc54)cnc23)c1` [Example 408], the EC50 at C. elegans Slo-1a was 0.316 µM; in data set [2] it was < 10 µg/mL. The chromatographic logP in data set [3] was 5.19.
On to `CC(C)c1c(C(=O)N[C@H]2CCc3ccccc32)cnc2c(-c3c(F)cccc3F)c(C3CC3)nn12` [Example 413], for which the half-maximal effective concentration (EC50) on C. elegans Slo-1a was 0.251 µM; in data set [2] it was < 1 µg/mL. In data set [3], this molecule returned a chromatographic logP of 4.96.
The matching figures for `Cc1nn2c(C3CC3)c(C(=O)N[C@H]3CCc4ccccc43)cnc2c1-c1cccc(OC(F)F)c1` [Example 417]: 0.00794 µM, < 0.1 µg/mL and 4.01.
The corresponding values for `Cc1nn2c(C3CC3)c(C(=O)N[C@H]3CCc4ccccc43)cnc2c1-c1cccc(OC2CC2)c1` [Example 418] are 0.00316 µM, < 0.1 µg/mL and 4.29.
For the molecule `Cc1nn2c(C(C)C)c(C(=O)N[C@H]3CCCc4ccccc43)cnc2c1-c1cnn(CC2CC2)c1` [Example 420], the figures for the EC50 (at C. elegans Slo-1a; in data set [2]) were 0.00794 µM and < 10 µg/mL, respectively. The chromatographic logP in data set [3] worked out at 4.13.
The matching figures for `COc1cc(-c2c(C)nn3c(C4CC4)c(C(=O)N[C@H]4CCc5ccccc54)cnc23)cc(C(F)(F)F)c1` [Example 423]: 0.0631 µM, < 10 µg/mL and 4.7.
The matching figures for `Cc1nn2c(C3CC3)c(C(=O)N[C@H]3CCc4ccccc43)cnc2c1-c1cc(Cl)cc(C(F)(F)F)c1` [Example 425]: 0.0794 µM, < 10 µg/mL and 5.34.
Regarding `CC(C)c1c(C(=O)N[C@H]2CCc3ccccc32)cnc2c(-c3cccc(N(C)C)c3)c(C(F)F)nn12` [Example 427], the concentration giving a half-maximal response (EC50) is 0.02 µM at C. elegans Slo-1a and < 10 µg/mL in data set [2]. This molecule also came in with a chromatographic logP in data set [3] of 4.3.
The matching figures for `COc1cccc(-c2c(C(F)F)nn3c(C(C)C)c(C(=O)N[C@H]4CCc5ccccc54)cnc23)c1` [Example 428]: 0.0251 µM, < 0.1 µg/mL and 4.42.
For the molecule `CC(C)c1c(C(=O)N[C@H]2CCc3ccccc32)cnc2c(-c3cccc(F)c3)c(C(F)F)nn12` [Example 429], the concentration for a half-maximal effect (EC50) at C. elegans Slo-1a is 0.0398 µM; in data set [2] it was < 10 µg/mL. In data set [3], this molecule returned a chromatographic logP of 4.57.
As to `COCc1cccc(-c2c(C(F)F)nn3c(C(C)C)c(C(=O)N[C@H]4CCc5ccccc54)cnc23)c1` [Example 430], the half-maximal effective concentration (EC50) on C. elegans Slo-1a is 0.0158 µM; in data set [2], < 1 µg/mL. Moreover, in data set [3], the chromatographic logP was found to be 4.36.
Turning to `CC(C)c1c(C(=O)N[C@H]2CCc3ccccc32)cnc2c(-c3cccc(OC(F)(F)F)c3)c(C(F)F)nn12` [Example 431], the values for the EC50 (on C. elegans Slo-1a; in data set [2]) were 0.00631 µM and < 10 µg/mL, respectively. Further, the chromatographic logP in data set [3] was 5.18.
The corresponding values for `CC(C)c1c(C(=O)N[C@H]2CCc3ccccc32)cnc2c(-c3cccc(C(F)(F)F)c3)c(C(F)F)nn12` [Example 433] are 0.01 µM, < 10 µg/mL and 5.03.
As for `CC(C)c1c(C(=O)N[C@H]2CCc3ccccc32)cnc2c(-c3ccccc3Cl)c(C(F)F)nn12` [Example 435], the EC50 at C. elegans Slo-1a is 0.0251 µM; in data set [2] it was < 0.1 µg/mL. Also, in data set [3], the chromatographic logP stood at 4.43.
On to `COc1cccc(-c2c(C)nn3c(C4CC4)c(C(=O)N[C@H]4CCCc5ccccc54)cnc23)c1` [Example 439], for which the results for the EC50 (at C. elegans Slo-1a; in data set [2]) were 0.00631 µM and < 0.1 µg/mL, respectively. For the same molecule, in data set [3], the chromatographic logP amounted to 4.03.
The corresponding values for `Cc1nn2c(C3CC3)c(C(=O)N[C@H]3CCc4ccccc43)cnc2c1-c1cccc(N2CC(F)(F)C2)c1` [Example 441] are 0.01 µM, < 1 µg/mL and 4.16.
The corresponding values for `Cc1nn2c(C(C)C)c(C(=O)N[C@H]3CCc4ccccc43)cnc2c1-c1cccc(S(=O)(=O)C2CC2)c1` [Example 443] are 0.0501 µM, < 10 µg/mL and 3.99.
The corresponding values for `Cc1nn2c(C(C)C)c(C(=O)N[C@H]3CCOc4ccccc43)cnc2c1-c1cccc(N2CC(C#N)C2)c1` [Example 444] are 0.0158 µM, < 10 µg/mL and 3.91.
As to `Cc1nn2c(C3CC3)c(C(=O)N[C@H]3CCc4ccccc43)cnc2c1-c1cnn(CC2CC2)c1` [Example 446], the 50% effective concentration (EC50) was 0.0126 µM on C. elegans Slo-1a and < 10 µg/mL in data set [2]. In data set [3], this molecule gave a chromatographic logP of 3.15.
On to `Cc1nn2c(C(C)C)c(C(=O)N[C@H]3CCc4ccccc43)cnc2c1-n1cc(Cl)cn1` [Example 447], for which the EC50 at C. elegans Slo-1a was 0.398 µM; in data set [2], < 10 µg/mL. This molecule also registered a chromatographic logP in data set [3] of 4.13.
The matching figures for `Cc1nn2c(C3CC3)c(C(=O)N[C@H]3CCOc4ccccc43)cnc2c1-c1cccc(C(F)(F)F)c1` [Example 449]: 0.00631 µM, < 0.1 µg/mL and 4.31.
The corresponding values for `COc1cccc(-c2c(C)nn3c(C4CC4)c(C(=O)N[C@H]4CCOc5ccccc54)cnc23)c1` [Example 454] are 0.00398 µM, < 0.1 µg/mL and 3.5.
The matching figures for `Cc1nn2c(C3CC3)c(C(=O)N[C@H]3CCOc4ccccc43)cnc2c1-c1cccc(Cl)c1` [Example 455]: 0.00631 µM, < 0.1 µg/mL and 4.13.
In the case of `Cc1nn2c(C3CC3)c(C(=O)N[C@H]3CCOc4ccccc43)cnc2c1-c1cccc(F)c1` [Example 456], the EC50 on C. elegans Slo-1a is 0.00631 µM; in data set [2] it was < 0.1 µg/mL. This molecule also registered a chromatographic logP in data set [3] of 3.71.
The corresponding values for `Cc1nn2c(C3CC3)c(C(=O)N[C@H]3CCc4ccccc43)cnc2c1-c1cccc(N2CC(C#N)C2)c1` [Example 460] are 0.0398 µM, < 10 µg/mL and 3.44.
Turning to `Cc1nn2c(C3CC3)c(C(=O)N[C@H]3CCOc4ccccc43)cnc2c1-c1cccc(OC(F)(F)F)c1` [Example 462], the EC50 was 0.00631 µM at C. elegans Slo-1a and < 0.1 µg/mL in data set [2]. In addition, the chromatographic logP in data set [3] was determined as 4.47.
With `Cc1nn2c(C3CC3)c(C(=O)N[C@H]3CCOc4ccccc43)cnc2c1-c1cccc(N2CC(F)(F)C2)c1` [Example 464], the half-maximal effective concentration (EC50) on C. elegans Slo-1a is 0.00316 µM; in data set [2] it was < 0.1 µg/mL. In addition, the chromatographic logP in data set [3] is 3.92.
Regarding `Cc1nn2c(C3CC3)c(C(=O)N[C@H]3CCc4ccccc43)cnc2c1-c1cccc(N2CC(F)C2)c1` [Example 466], the half-maximal effective concentration (EC50) on C. elegans Slo-1a is 0.01 µM; in data set [2] it was < 10 µg/mL. For the same molecule, the chromatographic logP in data set [3] was determined as 3.85.
The corresponding values for `Cc1nn2c(C3CC3)c(C(=O)N[C@H]3CCOc4ccccc43)cnc2c1-c1cc(Cl)cc(Cl)c1` [Example 469] are 0.0158 µM, < 0.1 µg/mL and 4.96.
The matching figures for `Cc1nn2c(C3CC3)c(C(=O)N[C@H]3CCOc4ccccc43)cnc2c1-c1ccc(F)c(F)c1` [Example 471]: 0.00398 µM, < 0.1 µg/mL and 3.86.
Turning to `Cc1nn2c(C3CC3)c(C(=O)N[C@H]3CCOc4ccccc43)cnc2c1-c1cc(Cl)c(F)c(Cl)c1` [Example 476], the figures for the concentration for a half-maximal effect (EC50) (at C. elegans Slo-1a; in data set [2]) were 0.00631 µM and < 1 µg/mL, respectively. In addition, in data set [3], the chromatographic logP is 4.95.
Regarding `Cc1nn2c(N(C)C)c(C(=O)N[C@H]3CCOc4ccccc43)cnc2c1-c1cc(Cl)cc(Cl)c1` [Example 520], the values for the EC50 (at C. elegans Slo-1a; in data set [2]) were 0.00794 µM and < 0.1 µg/mL, respectively. The chromatographic logP in data set [3] is 4.92.
In the case of `Cc1nn2c(C3CC3)c(C(=O)N[C@H]3CCOc4ccccc43)cnc2c1-c1ccc(Cl)nc1` [Example 525], the concentration for a half-maximal effect (EC50) on C. elegans Slo-1a was 0.0794 µM; in data set [2] it was < 10 µg/mL. Also, the chromatographic logP in data set [3] was determined as 2.96.
The matching figures for `Cc1nn2c(C3CC3)c(C(=O)N[C@H]3CCOc4ccccc43)cnc2c1-c1ccnc(N2CCOCC2)c1F` [Example 527]: 0.0316 µM, < 10 µg/mL and 2.96.
On to `CC(=O)Nc1cc(-c2c(C)nn3c(C4CC4)c(C(=O)N[C@H]4CCOc5ccccc54)cnc23)ccn1` [Example 528], for which the EC50 on C. elegans Slo-1a was 1.26 µM; in data set [2], < 10 µg/mL. Moreover, in data set [3], the chromatographic logP came to 1.69.
The corresponding values for `Cc1ccccc1-c1c(C)nn2c(N3CCOCC3)c(C(=O)N[C@H]3CCOc4ccccc43)cnc12` [Example 536] are 0.00501 µM, < 0.1 µg/mL and 4.18.
For the molecule `Cc1nn2c(C3CC3)c(C(=O)N[C@H]3CCOc4ccccc43)cnc2c1-c1cc(F)cc(F)c1` [Example 537], the 50% effective concentration (EC50) at C. elegans Slo-1a is 0.00501 µM; in data set [2], < 0.1 µg/mL. Also, in data set [3], the chromatographic logP was determined as 3.99.
